Measured values taken from patent US20250144172A1, “ANTI-FIBROTIC SIALIDASE INHIBITOR COMPOUNDS AND METHODS OF USE” (The Texas A&M University System, priority 2016, published 2025).
Where two headings read alike, the source gives them in different places.

Columns and labels:
[1] = tested on: human PBMC; test: TGF-β1 accumulation by human PBMC (antibody staining and ELISA); format: cell-based
Procedure: To determine if sialidases might cause cells to accumulate intracellular and extracellular TGF-β1, human PBMC were cultured with sialidases in 96 well plates at 5×10^5 cells/ml and 200 μl/well in FibroLife serum-free medium for five days, then air dried. The levels of TGF-β1 in or on the cells was detected by staining with an antibody against TGF-β1. Photomicrographs were analyzed by counting stained cells (FIG. 7B) and quantifying staining intensity using ImageJ (FIG. 7C).
PBMC were cultured in 96 well plates at 5×10^5 cells/ml and 200 μl/well in FibroLife serum-free medium. When the cells were plated, recombinant human sialidases were added to final concentrations of 200 ng/ml, and DANA or oseltamivir were added to 3 μM. After 5 days, culture supernatants were analyzed using a TGF-β1 ELISA kit (R&D Systems).

[2] = tested on: mice with bleomycin-induced fibrosis; test: mouse bleomycin model of pulmonary fibrosis; format: in vivo; details: day 21
Procedure: The successful aspiration of bleomycin into the lungs was confirmed by listening for a crackling noise heard after the aspiration. Mice were weighed daily, and euthanized using CO2 following NIH guidelines at day 21 after bleomycin aspiration. The experiment was performed in accordance with the recommendations in the Guide for the Care and Use of Laboratory Animals of the National Institutes of Health. The Texas A&M University Animal Use and Care Committee approved the protocol.
The BALs were clarified by centrifugation at 500×g for 10 minutes, and the supernatants were transferred to Eppendorf tubes. The supernatants were flash frozen with liquid nitrogen, and stored at −20° C. until further use.
After collection of BAL fluid, mouse lungs were inflated with prewarmed Optimal Cutting Temperature (OCT) embedding medium (VWR, Radnor, PA) and then embedded in OCT, frozen on dry ice, and then stored at −80° C. 6-micron cryosections of mouse lungs were mounted on Superfrost Plus® microscope slides (VWR). The sections on the slides were allowed to air-dry for 24-48 hours. The slides were then fixed in acetone at room temperature for 20 minutes and air-dried for 10 minutes.
Then, starting 24 hours after bleomycin had been administered, the mice were given daily intraperitoneal injections of 10 mg/kg DANA (Calbiochem) in PBS or 10 mg/kg oseltamivir (Sigma) in PBS. Both inhibitors are quite polar and thus probably remain in the extracellular space. Assuming 2 ml of extracellular space in a 20 gram mouse, these doses would then be ˜3 μM. At day 21, mice were sacrificed and BAL and cryosections of lungs were obtained as described for Example 3. The experiment was performed in accordance with the recommendations in the Guide for the Care and Use of Laboratory Animals of the National Institutes of Health. The Texas A&M University Animal Use and Care Committee approved the protocol.
Treatment of mice with oropharyngeal bleomycin results in an initial inflammation, and then a fibrosis that has begun by day 10 after bleomycin treatment. To determine if sialidase inhibitors decrease fibrosis when treatment starts after the initial inflammation stage and when fibrosis is present, mice were treated with oropharyngeal bleomycin to induce symptoms of pulmonary fibrosis as described above. Then, starting 10 days after bleomycin had been administered, the mice were given daily intraperitoneal injections of 10 mg/kg DANA (Calbiochem) in PBS or 10 mg/kg oseltamivir (Sigma) in PBS. At day 21, mice were sacrificed and BAL and cryosections of lungs were obtained as described above. The experiment was performed in accordance with the recommendations in the Guide for the Care and Use of Laboratory Animals of the National Institutes of Health. The Texas A&M University Animal Use and Care Committee approved the protocol.
To determine if sialidase inhibitors could also reduce TGF-β1 levels in mice, mice were treated with bleomycin or saline, then injected daily with saline, DANA or oseltamivir starting at day 10 after bleomycin treatment, as described in Example 9. The mice were euthanized at day 21 and sections of lung tissue were stained for TGF-β1. Results are presented in FIG. 11A and are representative of results for three mice per group.

[3] = target: human NEU3 (Homo sapiens (Human), UniProt Q9UQ49); test: human NEU3 sialidase inhibition
human NEU3, sequence (Q9UQ49 whole entry): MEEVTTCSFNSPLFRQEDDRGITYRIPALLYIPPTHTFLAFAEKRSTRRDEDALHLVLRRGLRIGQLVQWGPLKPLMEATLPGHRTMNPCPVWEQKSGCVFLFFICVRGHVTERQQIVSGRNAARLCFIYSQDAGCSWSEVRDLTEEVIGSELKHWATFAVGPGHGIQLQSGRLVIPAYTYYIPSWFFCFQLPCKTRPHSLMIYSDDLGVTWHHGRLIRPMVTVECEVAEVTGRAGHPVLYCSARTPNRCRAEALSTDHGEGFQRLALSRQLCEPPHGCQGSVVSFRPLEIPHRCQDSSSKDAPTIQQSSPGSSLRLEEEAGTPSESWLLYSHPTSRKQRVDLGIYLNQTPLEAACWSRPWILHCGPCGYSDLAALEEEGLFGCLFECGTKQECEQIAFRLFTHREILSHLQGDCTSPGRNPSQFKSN
Excerpt: (§1) Enzymatic activity may be defined as inhibited if the rate measured by the Michaelis-Menten equation in an in vitro assay using a substrate with a terminal sialic acid is inhibited by at least 50%. More specifically, a human sialidase inhibitor may be a compound that inhibits the rate of at least one human sialidase by at least 50% as measured by the Michaelis-Menten equation in an in vitro assay using the fluorometric substrate 4MU-NANA [2′-(4-Methylumbelliferyl)-α-D-N-acetylneuraminic acid.
(§2) In general, sialidase activity, including human sialidase activity, may be assessed at 37° C. in the presence of buffers ranging in pH from 3.7 to 7.4. […] Bovine serum albumin (BSA) is added to the buffer at a concentration of 100 ug/ml. Sialidase at a final concentration of 300 ng/ml is then added to the buffer. A sialidase inhibitor is then added to the mixture at a series of final concentrations. The reaction mixture is incubated for 30 minutes to allow the inhibitor to bind the sialidase. The fluorometric substrate 4MU-NANA [2′-(4-Methylumbelliferyl)-α-D-N-acetylneuraminic acid sodium salt hydrate is then added at a final concentration of 200 μM. […] The total volume of each reaction mixture is 0.1 ml. The cleavage of 4MU-NANA is then monitored by fluorescence every 20 minutes for 5 hours with excitation light at 360 nm and the fluorescence emission at 460 nm.

[4] = tested on: human PBMC; test: fibrocyte formation in human PBMC, serum-free medium; format: cell-based; details: 5 days; for fibrocyte formation / differentiation: 100 ng/ml sialidase, 10 μg/ml DANA or 1 μg/ml SAP
Procedure: Human peripheral blood was collected from healthy adult volunteers who gave written consent and with specific approval from the Texas A&M University human subjects Institutional Review Board. Peripheral blood mononuclear cells (PBMC) were isolated from blood using Ficoll-Paque Plus (GE Healthcare Biosciences, Piscataway, NJ). Human PBMC were incubated in serum-free medium (FibroLife basal media (LM-0001, Lifeline Cell Technology, Walkersville, MD), supplemented with 10 mM HEPES (Sigma-Aldrich, St. Louis, MO), 1x non-essential amino acids (Sigma-Aldrich), 1 mM sodium pyruvate (Sigma-Aldrich), 2 mM glutamine (Invitrogen, Carlsbad, CA), 100 U/ml penicillin, 100 μg/ml streptomycin (Sigma-Aldrich), and 1x ITS-3 (Sigma-Aldrich) in the presence of absence of 100 ng/ml recombinant human sialidases (Origene, Rockville MD), 10 μg/ml DANA (Calbiochem, San Diego, CA), or 1 μg/ml human SAP (Calbiochem). After 5 days, fibrocytes were counted, and results are presented in FIG. 5.

[5] = target: human NEU2 (Homo sapiens (Human), UniProt Q9Y3R4); test: human NEU2 sialidase inhibition
human NEU2, sequence (Q9Y3R4 whole entry): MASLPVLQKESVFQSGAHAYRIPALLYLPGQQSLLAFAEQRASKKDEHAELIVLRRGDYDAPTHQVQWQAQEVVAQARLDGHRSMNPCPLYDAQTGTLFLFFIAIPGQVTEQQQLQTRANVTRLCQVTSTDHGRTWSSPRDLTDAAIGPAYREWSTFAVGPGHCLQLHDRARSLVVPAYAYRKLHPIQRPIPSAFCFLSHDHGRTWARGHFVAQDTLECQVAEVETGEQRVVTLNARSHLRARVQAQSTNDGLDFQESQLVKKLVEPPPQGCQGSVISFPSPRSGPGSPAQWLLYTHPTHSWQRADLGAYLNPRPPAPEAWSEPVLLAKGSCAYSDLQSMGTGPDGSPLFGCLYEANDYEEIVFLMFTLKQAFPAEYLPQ
Excerpt: as §1, §2

[6] = target: human NEU4 (Homo sapiens (Human), UniProt Q8WWR8); test: human NEU4 sialidase inhibition; details: read-out: NEU4 IC50; human NEU4
human NEU4, sequence (Q8WWR8 whole entry): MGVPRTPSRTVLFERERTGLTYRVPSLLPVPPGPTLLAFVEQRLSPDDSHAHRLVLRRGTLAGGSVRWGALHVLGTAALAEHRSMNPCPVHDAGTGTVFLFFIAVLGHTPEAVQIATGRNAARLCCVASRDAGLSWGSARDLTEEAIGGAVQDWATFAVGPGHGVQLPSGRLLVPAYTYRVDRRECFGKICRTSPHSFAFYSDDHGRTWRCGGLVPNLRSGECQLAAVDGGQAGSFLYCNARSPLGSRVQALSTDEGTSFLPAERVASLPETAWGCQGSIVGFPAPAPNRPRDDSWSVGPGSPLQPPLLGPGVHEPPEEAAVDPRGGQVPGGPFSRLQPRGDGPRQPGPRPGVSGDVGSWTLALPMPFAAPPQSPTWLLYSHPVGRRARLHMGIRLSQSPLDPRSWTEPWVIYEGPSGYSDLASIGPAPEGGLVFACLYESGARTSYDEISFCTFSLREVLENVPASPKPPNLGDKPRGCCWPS

[7] = tested on: human monocytes and lymphocytes; test: sialidase levels in human PBMC cultured with IL-6 (flow cytometry); format: cell-based; details: 100 and 1000 pg/ml IL-6; three days
Procedure: To determine the effects of IL-6 on NEU3 production by human PBMC, PBMC were cultured as above in serum-free medium at 10^5 cells/ml with 2 ml/well in 6-well tissue culture plates (VWR) in the presence or absence of recombinant human interleukin-6 (IL-6) (BioLegend). After three days, the medium was carefully removed and the cells were washed with 1 ml of phosphate buffered saline (PBS) at room temperature. The cells were detached with 500 μl of Accutase cell detachment solution (VWR) per well for 6 minutes at 37° C. 1000 μl RPMI medium supplemented as described above with BCS, penicillin, streptomycin and glutamine was added per well to neutralize the Accutase. After pipetting the cell solutions 4 times, the cells were placed in sterile 1.7 ml microtubes (Genesee Scientific, San Diego, CA) and cells were collected by centrifugation at 5000×g for 10 minutes at 4° C. The pelleted cells were washed twice by resuspension with 1000 μl of ice-cold PBS and centrifugation. The cells were resuspended in 200 μl of ice-cold 2% (w/v) paraformaldehyde (EMS, Hatfield, PA), in PBS for 10 minutes on ice for fixation. 1000 μl of ice-cold PBS was added and cells were collected by centrifugation. The cells were resuspended in 200 μl of ice-cold 2% (w/v) bovine serum albumin (BSA) (VWR) in PBS (PBSA), for 10 minutes on ice for blocking. […]

[8] = recombinant human sialidase activity, 4MU-NANA cleavage at pH 6.4 and 7.0; format: biochemical
Procedure: In general, sialidase activity, including human sialidase activity, may be assessed at 37° C. in the presence of buffers ranging in pH from 3.7 to 7.4. Buffers with pH 3.7, 4.0, 4.6, 5.2 and 5.6 are 100 mM sodium acetate buffers. Buffers with pH 5.8, 6.4, 7.0 and 8.0 are based on Phosphate-Buffered Saline (PBS), with addition of 12 N HCl or 1 M NaOH to adjust the pH. Bovine serum albumin (BSA) is added to the buffer at a concentration of 100 ug/ml. Sialidase at a final concentration of 300 ng/ml is then added to the buffer. A sialidase inhibitor is then added to the mixture at a series of final concentrations. The reaction mixture is incubated for 30 minutes to allow the inhibitor to bind the sialidase. The fluorometric substrate 4MU-NANA [2′-(4-Methylumbelliferyl)-α-D-N-acetylneuraminic acid sodium salt hydrate is then added at a final concentration of 200 μM. Control reactions have no added inhibitor. The total volume of each reaction mixture is 0.1 ml. The cleavage of 4MU-NANA is then monitored by fluorescence every 20 minutes for 5 hours with excitation light at 360 nm and the fluorescence emission at 460 nm.
The fluorescence in the absence of sialidases is subtracted from all readings. The fluorescence of known concentrations of 4-methylumbelliferone is used to convert fluorescence to moles of product. […]

[9] = read-out: NEU3 IC50, human NEU3
[10] = read-out: NEU2 IC50, human NEU2

Molecule: CC(=O)N[C@H]1[C@H]([C@H](O)[C@H](O)CO)OC(C(=O)O)=C[C@@H]1O [Compound 1, N-Acetyl-2,3-dehydro-2-deoxyneuraminic acid, reference compound]
- effects of NEU2 and NEU3 on extracellular TGF-β1 ([1]; inhibitor 3 μM, sialidases 200 ng/ml, 5 days, ELISA): blocked
- collagen deposition in the lungs (Sirius red) ([2]; 10 mg/kg daily i.p. starting 24 hours after bleomycin): reduced
- collagen deposition in the lungs (Sirius red) ([2]; 10 mg/kg daily i.p. starting at day 10): reduced
- TGF-β1 levels in lung tissue (staining) ([2]; daily injection starting at day 10): reduced TGF-β1 levels
- IC50 [3, 9]: 61 µM
- NEU4 potentiation of fibrocyte differentiation ([4]; 10 μg/ml DANA with 100 ng/ml NEU4): inhibited the NEU4 potentiation of fibrocyte differentiation
- fibrocyte formation / differentiation [4]: inhibited fibrocyte differentiation

Molecule: [N-]=[N+]=NC[C@@H](O)[C@@H](O)[C@@H]1OC(C(=O)O)=C[C@H](O)[C@H]1NC(=O)CO [Compound 33]
- IC50 [5, 10]: 190 µM

Molecule: COC[C@@H](O)[C@@H](O)[C@@H]1OC(C(=O)O)=C[C@H](O)[C@H]1NC(C)=O [Compound 35]
- IC50 [5, 10]: 410 µM

Molecule: CC(=O)N[C@@H]1C(N)C=C(C(=O)O)OC1CNc1ccccc1 (stereo partly drawn) [Compound 45]
- IC50 ([5]; NEU2 IC50, human NEU2): 100 ± 13 µM
- IC50 ([3]; NEU3 IC50, human NEU3): 370 ± 80 µM

Molecule: CC(=O)N[C@H]1C([C@@H](O)[C@@H](O)Cn2cc(OCc3ccccc3)nn2)OC(C(=O)O)=C[C@@H]1O (stereo partly drawn) [Compound 53]
- IC50 [5, 10]: 800 ± 70 µM
- IC50 [6]: 1.7 ± 0.2 µM
- IC50 [3, 9]: 5.5 ± 0.6 µM

Molecule: IL-6: recombinant human interleukin-6 (IL-6) (BioLegend)
- levels of NEU3 in human monocytes and lymphocytes [7]: significantly increased

Molecule: NEU1: recombinant human NEU1 (sialidase 1), human neuraminidase 1
- accumulation of TGF-β1 ([1]; recombinant sialidase 200 ng/ml, five days): no significant effect
- Sialidase activity ([8]; pH 6.4): 12.8 ± 1.3 μmole/min/mg protein
- Sialidase activity ([8]; pH 7.0): 7.2 ± 0.9 μmole/min/mg protein
- ability of SAP to inhibit fibrocyte formation ([4]; 100 ng/ml sialidase with 1 μg/ml SAP): did not potentiate fibrocyte differentiation or counteract SAP
- fibrocyte formation / differentiation [4]: did not potentiate fibrocyte differentiation

Molecule: SAP: human SAP (Calbiochem), serum amyloid protein
- fibrocyte formation / differentiation [4]: No fibrocytes were detected
